In the assay the test system is PGY-sRNA-26. The assay can be described thus: In vivo delivery study of lipid-nucleic acid mixture (oral gavage, RT-qPCR of PGY-sRNA-26 in tissues). Set-up: species or system mouse. The following applies: C57BL/6 mice, gavage, 100 μg lipid: 10 nmol PGY-sRNA-26, 12 hours; for delivery efficacy over each tissue and blood tested (broad-spectrum delivery): all tissues and blood tested; for oral delivery of single-stranded sRNA nucleic acids into mouse intestinal tissue: intestine. The procedure:
10 nmol of small RNA (as shown in Table 2) was dissolved in 400 μl of DEPC-treated water in a glass tube, 10 μl of the corresponding lipid stock solution was added such that the lipid mass in the system was 100 μg. The mixture was mixed thoroughly, heated in a 90° C. water bath for 15 minutes, and then cooled naturally to obtain the lipid nucleic acid mixture of lipid and small RNA.
C57BL/6 male mice, approximately 6 weeks old, weighing 20-24 g, were obtained from Beijing Vital River Laboratory Animal Technology Co., Ltd. The mice were housed in the SPF-grade animal facility at the Animal Center of the Institute of Basic Medical Sciences, Chinese Academy of Medical Sciences. The mice were fasted for 12 hours before gavage administration.
The resultant lipid nucleic acid mixture was orally administered to each mouse at a dose of 100 μg lipid: 10 nmol single-stranded 3′-methylated small RNA PGY-sRNA-26.
• 1) Blank group (n=4): mice were administered with 500 μl saline by gavage, this group served as a blank control; • 2) Free uptake group (n=4): mice were directly administered with small RNA PGY-sRNA-26 solution (10 nmol/mouse, 500 μl) by gavage, this group served as a negative control; • 3) Lipid-treated group (n=4): mice were administered with 500 μl lipid nucleic acid mixture prepared in step 2 by gavage.
After 12 hours of gavage administration, 500 μl blood from the eyeball of each mouse was sampled, added to 1.5 ml Trizol Reagent LS (purchased from Invitrogen), thoroughly mixed for lysis. 3 ml of Trizol Reagent LSwas added to tissue samples and homogenized for complete lysis, wherein the sampled tissues include heart, liver, spleen, lung, kidney, stomach, intestine, brain, blood, femur. RNA was extracted from 1 ml of the blood or the tissue lysate following the steps below: • Centrifuge at 4° C., 12,000 rpm for 5 min, discard the precipitate, transfer Trizol to a new centrifuge tube; • Add chloroform at 200 μL chloroform/mL Trizol, shake well, stand at room temperature for 5 min; • Centrifuge at 4° C., 12,000 rpm for 15 min; • Take the upper aqueous phase to another centrifuge tube, add isopropanol at 0.4 mL isopropanol/mL Trizol, mix well, and stand at low temperature for 10-20 min; • Centrifuge at 4° C., 12,000 rpm for 15 min, discard the supernatant, RNA precipitated at the bottom of the tube; • Add 1 mL of 75% ethanol, gently shake the centrifuge tube, suspend the precipitate; • Centrifuge at 4° C., 12,000 rpm for 15 min, discard the supernatant, add 1 mL of 75% ethanol, gently shake the centrifuge tube, suspend the precipitate; • Centrifuge at 4° C., 12,000 rpm for 15 min, discard the supernatant, air-dry at room temperature, dissolve RNA samples in 50 μL RNase-free H2O, measure OD value to quantify RNA concentration. 3.3 Reverse Transcription of sRNA to cDNA:
The reverse transcription system is as follows: Template RNA (200 ng/μL) 10 μL, 10×RT Buffer 2.0 μL, 25×dNTP Mix (100 mM) 0.8 μL, U6 RT stem-loop primer (10 μM) 2.0 μL, PGY-sRNA-26 RT stem-loop primer (10 μM) 2.0 μL, MultiScribe™ Reverse Transcriptase (50 U/μL) 1.0 μL, RNAse Inhibitor (40 U/μL) 1.0 μL, nuclease-free H2O 1.2 μL. After transient centrifugation, the reverse transcription system was placed in a PCR machine with the following reaction conditions: (1) 25° C., 10 min; (2) 37° C., 120 min; (3) 85° C., 5 min; (4) 4° C., stop reaction. After the reaction, add 20 μL RNAse-free ddH2O, adjust the final volume to 40 μL. The stem-loop primers used in this reverse transcription process were synthesized by Beijing Tianyi Huiyuan Biotechnology Co., Ltd. (U6 was used as a standard reference gene to calculate its relative expression, because U6 RT primer was used as a reference gene in relative quantification of RT-qPCR reactions for small RNA): […]

Structures are written as SMILES.

Consider `C[C@@H]1O[C@@H](O[C@H]2C[C@@H](O)[C@]3(CO)[C@H]4[C@H](O)C[C@]5(C)[C@@H](C6=CC(=O)OC6)CC[C@]5(O)[C@@H]4CC[C@]3(O)C2)[C@H](O)[C@H](O)[C@H]1O` [Lipid 550], for which the “delivery efficacy over each tissue and blood tested (broad-spectrum delivery)” value is “exhibited the best delivery efficacy”; the “oral delivery of single-stranded sRNA nucleic acids into mouse blood” value is recorded as “can effectively orally deliver”; the “oral delivery of single-stranded sRNA nucleic acids into mouse brain tissue” value is “can effectively orally deliver”; the “oral delivery of single-stranded sRNA nucleic acids into mouse femur” value is listed as “can effectively orally deliver”. Besides, the “oral delivery of single-stranded sRNA nucleic acids into mouse heart tissue” value is recorded as “can effectively orally deliver”, the “oral delivery of single-stranded sRNA nucleic acids into mouse intestinal tissue” value was “can effectively orally deliver”, the “oral delivery of single-stranded sRNA nucleic acids into mouse kidney tissue” value is recorded as “can effectively orally deliver” and the “oral delivery of single-stranded sRNA nucleic acids into mouse liver tissue” value is “can effectively orally deliver”. Moreover, the “oral delivery of single-stranded sRNA nucleic acids into mouse lung tissue” value was “can effectively orally deliver”, the “oral delivery of single-stranded sRNA nucleic acids into mouse spleen tissue” value is “can effectively orally deliver” and the “oral delivery of single-stranded sRNA nucleic acids into mouse stomach tissue” value is “can effectively orally deliver”.

As to `CC(C)CCC[C@@H](C)[C@H]1CC[C@H]2[C@@H]3C[C@@H](O)[C@@]4(O)C[C@@H](O)CC[C@]4(C)[C@H]3CC[C@]12C` [Lipid 551, Cholestan-3,5,6-triol (3S,5R,6R,8S,9S,10R,13R,14S,17R)-10,13-dimethyl-17-[(2R)-6-methylheptan-2-yl]-1,2,3,4,6,7,8,9,11,12,14,15,16,17-tetradecahydrocyclopenta[a]phenanthrene-3,5,6-triol], the “delivery efficacy over each tissue and blood tested (broad-spectrum delivery)” value is “exhibited the best delivery efficacy”; the “oral delivery of single-stranded sRNA nucleic acids into mouse blood” value is “can effectively orally deliver”; the “oral delivery of single-stranded sRNA nucleic acids into mouse brain tissue” value is given as “can effectively orally deliver”; the “oral delivery of single-stranded sRNA nucleic acids into mouse femur” value is “can effectively orally deliver”. Further, the “oral delivery of single-stranded sRNA nucleic acids into mouse heart tissue” value is given as “can effectively orally deliver”, the “oral delivery of single-stranded sRNA nucleic acids into mouse intestinal tissue” value is on record as “can effectively orally deliver”, the “oral delivery of single-stranded sRNA nucleic acids into mouse kidney tissue” value is recorded as “can effectively orally deliver” and the “oral delivery of single-stranded sRNA nucleic acids into mouse liver tissue” value is “can effectively orally deliver”. For the same compound, the “oral delivery of single-stranded sRNA nucleic acids into mouse lung tissue” value is listed as “can effectively orally deliver”, the “oral delivery of single-stranded sRNA nucleic acids into mouse spleen tissue” value was “can effectively orally deliver” and the “oral delivery of single-stranded sRNA nucleic acids into mouse stomach tissue” value was “can effectively orally deliver”.

For `C[C@H](CCC(=O)NCC(=O)O)[C@H]1CC[C@H]2[C@@H]3CC[C@@H]4C[C@H](O)CC[C@]4(C)[C@H]3C[C@H](O)[C@]12C` [Lipid 552], the “delivery efficacy over each tissue and blood tested (broad-spectrum delivery)” value is given as “exhibited the best delivery efficacy”; the “oral delivery of single-stranded sRNA nucleic acids into mouse blood” value is reported as “can effectively orally deliver”; the “oral delivery of single-stranded sRNA nucleic acids into mouse brain tissue” value is given as “can effectively orally deliver”; the “oral delivery of single-stranded sRNA nucleic acids into mouse femur” value is given as “can effectively orally deliver”. In addition, the “oral delivery of single-stranded sRNA nucleic acids into mouse heart tissue” value was “can effectively orally deliver”, the “oral delivery of single-stranded sRNA nucleic acids into mouse intestinal tissue” value is on record as “can effectively orally deliver”, the “oral delivery of single-stranded sRNA nucleic acids into mouse kidney tissue” value is reported as “can effectively orally deliver” and the “oral delivery of single-stranded sRNA nucleic acids into mouse liver tissue” value is “can effectively orally deliver”. In addition, the “oral delivery of single-stranded sRNA nucleic acids into mouse lung tissue” value is given as “can effectively orally deliver”, the “oral delivery of single-stranded sRNA nucleic acids into mouse spleen tissue” value was “can effectively orally deliver” and the “oral delivery of single-stranded sRNA nucleic acids into mouse stomach tissue” value is reported as “can effectively orally deliver”.

Consider `C[C@H](CCC(=O)NCC(=O)O)[C@H]1CC[C@H]2[C@@H]3[C@H](O)C[C@@H]4C[C@H](O)CC[C@]4(C)[C@H]3C[C@H](O)[C@]12C` [Lipid 553], for which the “delivery efficacy over each tissue and blood tested (broad-spectrum delivery)” value was “exhibited the best delivery efficacy”; the “oral delivery of single-stranded sRNA nucleic acids into mouse blood” value is “can effectively orally deliver”; the “oral delivery of single-stranded sRNA nucleic acids into mouse brain tissue” value is recorded as “can effectively orally deliver”; the “oral delivery of single-stranded sRNA nucleic acids into mouse femur” value is given as “can effectively orally deliver”. In addition, the “oral delivery of single-stranded sRNA nucleic acids into mouse heart tissue” value is listed as “can effectively orally deliver”, the “oral delivery of single-stranded sRNA nucleic acids into mouse intestinal tissue” value is recorded as “can effectively orally deliver”, the “oral delivery of single-stranded sRNA nucleic acids into mouse kidney tissue” value is listed as “can effectively orally deliver” and the “oral delivery of single-stranded sRNA nucleic acids into mouse liver tissue” value is recorded as “can effectively orally deliver”. The “oral delivery of single-stranded sRNA nucleic acids into mouse lung tissue” value is on record as “can effectively orally deliver”, the “oral delivery of single-stranded sRNA nucleic acids into mouse spleen tissue” value was “can effectively orally deliver” and the “oral delivery of single-stranded sRNA nucleic acids into mouse stomach tissue” value is given as “can effectively orally deliver”.

Regarding `C=C1/C(=C\C=C2/CCC[C@]3(C)[C@@H]([C@H](C)/C=C/[C@@H](O)C4CC4)CC[C@@H]23)C[C@@H](O)C[C@@H]1O` [Lipid 554], the “delivery efficacy over each tissue and blood tested (broad-spectrum delivery)” value is given as “exhibited the best delivery efficacy”; the “oral delivery of single-stranded sRNA nucleic acids into mouse blood” value is listed as “can effectively orally deliver”; the “oral delivery of single-stranded sRNA nucleic acids into mouse brain tissue” value is on record as “can effectively orally deliver”; the “oral delivery of single-stranded sRNA nucleic acids into mouse femur” value is recorded as “can effectively orally deliver”. Moreover, the “oral delivery of single-stranded sRNA nucleic acids into mouse heart tissue” value was “can effectively orally deliver”, the “oral delivery of single-stranded sRNA nucleic acids into mouse intestinal tissue” value is listed as “can effectively orally deliver”, the “oral delivery of single-stranded sRNA nucleic acids into mouse kidney tissue” value was “can effectively orally deliver” and the “oral delivery of single-stranded sRNA nucleic acids into mouse liver tissue” value is listed as “can effectively orally deliver”. For the same compound, the “oral delivery of single-stranded sRNA nucleic acids into mouse lung tissue” value is “can effectively orally deliver”, the “oral delivery of single-stranded sRNA nucleic acids into mouse spleen tissue” value was “can effectively orally deliver” and the “oral delivery of single-stranded sRNA nucleic acids into mouse stomach tissue” value is on record as “can effectively orally deliver”.

The values are drawn from patent publication US20240293551A1, “USE OF ST-TYPE LIPID COMPOUNDS IN PREPARATION OF NUCLEIC ACID DELIVERY REAGENT AND RELATED PRODUCT” (INSTITUTE OF BASIC MEDICAL SCIENCES CHINESE ACADEMY OF …, priority 2021, published 2024).
